Results reported in PubChem BioAssay AID266 (DTP/NCI, 2004).
Inconclusive results are not listed. Starred links: 1 amine or outer side, 2 acyl side, 3 side chain; linkers in the order of their positions; H or OH if unused. Positions of bridges follow the written chain, without caps; N, C: chain ends. Non-standard residues stand in square brackets, D forms with d. Residues, ends and D or L forms follow the SMILES beside them. Chains are numbered I, II in the order given. Actinocin(9to1) = Cc1c2oc3c(C)ccc(C(=O)[*:1])c3nc-2c(C(=O)[*:2])c(N)c1=O; aThr = C[C@H](O)[C@H](N)C(=O)O; NMeV = CN[C@H](C(=O)O)C(C)C; Sar = CNCC(=O)O

Test system: Nude mice, LX-1 lung xenograft intrarenal, tumor weight T/C
Experiment: NCI In Vivo Anticancer Drug Screen. Data for tumor model Human Lung LX-1 Xenograft (intrarenal inoculation) in NU/NU BALB/C (nude) mice
Settings: endpoint: mean tumor weight change, higher = larger tumour
Description: The antitumor activity of compounds was measured in mice bearing transplantable tumors. Survival or tumor size were measured and the results are expressed as the measurement made in the treated group (T) divided by the measurement made in the vehicle treated control group (C). The tumor model used in this assay is Human Lung LX-1 Xenograft (intrarenal inoculation) in NU/NU BALB/C (nude) mice

Question: `CCOC(C)C(/C=N/NC(N)=S)=NNC(N)=S` (stereo not given) was tested. Which T/C (dose: 200.0 mg/kg/injection, schedule: Q01DX010 (sc), vehicle: saline with Tween-80) did it give?
Answer: 231 % of control

Question: And the T/C (dose: 400.0 mg/kg/injection, schedule: Q01DX010 (sc), vehicle: saline with Tween-80)?
Answer: 233 % of control

Question: What about the T/C (dose: 800.0 mg/kg/injection, schedule: Q01DX010 (sc), vehicle: saline with Tween-80) of the same compound?
Answer: 78 % of control

Question: How did the T/C (dose: 150.0 mg/kg/injection, schedule: Q04DX003 (ip), vehicle: Klucel (hydroxypropylcellulose) (HPC)) turn out when `C[C@]12CCC(=O)C(O)=C1CC[C@@H]1[C@@H]2CC[C@]2(C)C(=O)CC[C@@H]12` was run?
Answer: 61 % of control

Question: What about the T/C (dose: 300.0 mg/kg/injection, schedule: Q04DX003 (ip), vehicle: Klucel (hydroxypropylcellulose) (HPC)) of the same compound?
Answer: 99 % of control

Question: And the T/C (dose: 600.0 mg/kg/injection, schedule: Q04DX003 (ip), vehicle: Klucel (hydroxypropylcellulose) (HPC))?
Answer: 89 % of control

Question: Which results are given for `Cc1c2oc3c(C)ccc(C(=O)N[C@@H]4C(=O)N[C@H](C(C)C)C(=O)N5CCC[C@H]5C(=O)N(C)CC(=O)N(C)[C@@H](C(C)C)C(=O)O[C@H]4C)c3nc-2c(C(=O)N[C@@H]2C(=O)N[C@H](C(C)C)C(=O)N3CCC[C@H]3C(=O)N(C)CC(=O)N(C)[C@@H](C(C)C)C(=O)O[C@H]2C)c(N)c1=O` (I: [aThr][dV]P[Sar][NMeV] / II: [aThr][dV]P[Sar][NMeV]; ester I:1-I:C, II:1-II:C; linker I:N-II:N via Actinocin(9to1))?
Answer: T/C (dose: 50.0 micrograms/kg/injection, schedule: Q01DX010 (sc), vehicle: saline): 35 % of control; T/C (dose: 100.0 micrograms/kg/injection, schedule: Q01DX010 (sc), vehicle: saline): 11 % of control

Question: For `Nc1ccc(S(=O)(=O)Nc2cnc3c(Cl)cccc3n2)cc1`, which T/C (dose: 150.0 mg/kg/injection, schedule: Q04DX003 (ip), vehicle: DMSO) is on record?
Answer: 82 % of control

Question: And the T/C (dose: 300.0 mg/kg/injection, schedule: Q04DX003 (ip), vehicle: DMSO)?
Answer: 89 % of control

Question: And the T/C (dose: 600.0 mg/kg/injection, schedule: Q04DX003 (ip), vehicle: DMSO)?
Answer: 45 % of control

Question: `Nc1ncn(C2CC(O)C(CO)O2)c(=O)n1` (stereo not given) was tested. Which T/C (dose: 0.75 mg/kg/injection, schedule: Q01DX010 (sc), vehicle: saline) did it give?
Answer: 85 % of control

Question: What does the source list for `N[C@@H](Cc1ccc(N(CCCl)CCCl)cc1)C(=O)O`?
Answer: T/C (dose: 1.0 mg/kg/injection, schedule: Q01DX010 (sc), vehicle: saline): 94 % of control; T/C (dose: 2.0 mg/kg/injection, schedule: Q01DX010 (sc), vehicle: saline): 47 % of control; T/C (dose: 4.0 mg/kg/injection, schedule: Q01DX010 (sc), vehicle: saline): 13 % of control; T/C (dose: 8.0 mg/kg/injection, schedule: Q01DX010 (sc), vehicle: saline): -19 % of control

Question: What does the source list for `CC(C#N)(C#N)N=Nc1ccc(Cl)cc1Cl`?
Answer: T/C (dose: 600.0 mg/kg/injection, schedule: Q04DX003 (sc), vehicle: saline with Tween-80): 124 % of control; T/C (dose: 1200.0 mg/kg/injection, schedule: Q04DX003 (sc), vehicle: saline with Tween-80): 86 % of control; T/C (dose: 2400.0 mg/kg/injection, schedule: Q04DX003 (sc), vehicle: saline with Tween-80): 102 % of control

Question: For `O=C1N[C@H]2[C@H](CS[C@H]2CCCCC(=O)N(CCP(c2ccccc2)c2ccccc2)CCP(c2ccccc2)c2ccccc2)N1`, which T/C (dose: 300.0 mg/kg/injection, schedule: Q04DX003 (sc), vehicle: Klucel (hydroxypropylcellulose) (HPC)) is on record?
Answer: 84 % of control

Question: And the T/C (dose: 600.0 mg/kg/injection, schedule: Q04DX003 (sc), vehicle: Klucel (hydroxypropylcellulose) (HPC))?
Answer: 64 % of control

Question: What about the T/C (dose: 1200.0 mg/kg/injection, schedule: Q04DX003 (sc), vehicle: Klucel (hydroxypropylcellulose) (HPC)) of the same compound?
Answer: 87 % of control

Question: And the T/C (dose: 2400.0 mg/kg/injection, schedule: Q04DX003 (sc), vehicle: Klucel (hydroxypropylcellulose) (HPC))?
Answer: 71 % of control

Question: Which results are given for `Cc1c(CNc2ccc(C(=O)NC(CC(=O)O)C(=O)O)cc2)ccc2nc(N)nc(N)c12` (stereo not given)?
Answer: T/C (dose: 12.5 mg/kg/injection, schedule: Q04DX003 (sc), vehicle: saline with Tween-80): 100 % of control; T/C (dose: 25.0 mg/kg/injection, schedule: Q04DX003 (sc), vehicle: saline with Tween-80): 71 % of control; T/C (dose: 50.0 mg/kg/injection, schedule: Q04DX003 (sc), vehicle: saline with Tween-80): 32 % of control

Question: How did the T/C (dose: 25.0 mg/kg/injection, schedule: Q04DX003 (sc), vehicle: Klucel (hydroxypropylcellulose) (HPC)) turn out when `O=S(CCCl)CCCl` was run?
Answer: 81 % of control

Question: What about the T/C (dose: 50.0 mg/kg/injection, schedule: Q04DX003 (sc), vehicle: Klucel (hydroxypropylcellulose) (HPC)) of the same compound?
Answer: 76 % of control

Question: Which T/C (dose: 100.0 mg/kg/injection, schedule: Q01DX010 (sc), vehicle: saline + alcohol) does the source give for `C[C@@]1(CO)[C@H](O)CC[C@@]2(C)[C@H]1CC[C@H]1C[C@@H]3C[C@@]12CC[C@@]3(O)COC(=O)CN` here?
Answer: 109 % of control

Question: And the T/C (dose: 200.0 mg/kg/injection, schedule: Q01DX010 (sc), vehicle: saline + alcohol)?
Answer: 54 % of control
